Key:
B16a Tumor Cells = assay: 3H-thymidine incorporation into DNA of cultured B16a tumor cells; assay type: cell-based, mouse; details: for effect on 3H-thymidine incorporation (in words): B16a tumor cell DNA
Protocol: ^3 H-thymidine incorporation studies were designed to measure the effects of BAY e 9736, nimodipine on the incorporation of ^3 H-thymidine into the DNA of B16a tumor cells. One ml of cultured B16a tumor cells (in MEM+10% fetal calf serum) at 1×10^5 cells/ml are placed into plastic incubation tubes. The cells are incubated for 15 minutes at 37° C. in the presence of five microliters of dilutent (DMSO, dimethyl sulfoxide) alone or dilutent containing BAY e 9736. After 15 minutes, which is considered the preincubation period, the cells are incubated for one hour (at 37° C.) in the presence of one microcurie (per ml) ^3 H-thymidine. The assay is terminated by the addition of one milliliter of cold trichloroacetic acid, TCA, (6% w/v). The cells are centrifuged at 10,000×g ×4 minutes. The supernatant is discarded. The resulting pellet is resuspended in one milliliter of TCA, vortexed and then repelleted by centrifugation at 10,000 ×g ×4 minutes. The supernatant is discarded. The pellets are resuspended in 100 microliters of tissue solubilizing fluid (NCS from Amersham Corporation) and incubated for 2 hours at 50° C. Fifty microliter aliquots of the solubilized pellets are transferred into plastic scintillation vials containing 3 milliliters of scintillation fluid (Econofluor, New England Nuclear), allowed to cool and dark adjust, and counted.
A variation of the previously described experiment was used to determine the effects of BAY e 9736 on a different parameter of tumor cell proliferation, the replication of deoxyribonucleic acid (DNA) as measured by the incorporation of ^3 H-thymidine into tumor cell DNA. B16a tumor cells were grown in T-75 flasks and removed using trypsin, as previously described for Walker 256 L-Pam tumor cells. The B16a cells are quenched, washed, and resuspended in media (MEM+10% fetal calf serum, FCS) to a concentration of 1×10^5 cells/ml. One milliliter of tumor cells are placed into 5 ml plastic incubation tubes, and five microliters of media, dilutant, or dilutant containing 8, 4, or 2 milligram/ml BAY e 9736 are added to appropriate tubes. The assay was run, terminated, and the B16a tumor cell DNA extracted and counted as previously described.
Protocol same as previously described except nifedipine (40 mg) is first dissolved in absolute ethanol (0.5 ml) and then diluted with PEG-400 (1.5 ml) to a final concentration of 20 mg/ml. One microliter of the 20 mg/ml nifedipine solution was added to one ml of B16a tumor cells (for final concentration of 20 micrograms/ml). Nimodipine was dissolved as previously described.

Platelet = assay: ADP induced platelet aggregation; assay type: cell-based, human; details: for effect on ADP induced platelet aggregation (in words): higher concentrations
Protocol: Blood (45 ml) was drawn from the […] vein of healthy, fasted, aspirin free (at least two weeks) human volunteers into a plastic syringe containing 5 ml of 4.8% dextrose with 50 U/ml heparin buffered by 25 mM HEPES, pH 7.5. An 18 gauge needle was used to prevent hemolysis. The heparinized blood was gently mixed by inverting the syringe five times and then the blood was transfused into two 40 ml plastic centrifuge tubes and centrifuged for 10 min at 163×g. The resulting platelet rich plasma (PRP; the supernatant fraction) was decanted using an adjustable SMI pipette set at 6 ml. Platelet poor plasma (PPP) was prepared by centrifugation of PRP for 10 min at 1086×g. Platelet poor plasma was used to standardize the platelet concentration in PRP to 3×10^8 /ml. Platelet concentrations were determined using a Coulter Model ZBI cell counter.
Platelet aggregation was measured photometrically using a Sienco Model DP-247E dual channel aggregometer and recorded on a Sienco Model B-5000 dual channel recorder. Aliquots of PRP (250 microliters at 3×10^8 platelets/ml) were transferred into aggregometry cuvettes and stirred at a constant speed of 800 RPM at 37° C. Platelet aggregation studies were designed and run as individually controlled samples. BAY e 9736 was dissolved in either PEG-400 or […] (DMSO).
BAY e 9736 in PEG-400 alone was aliquoted into the cuvettes prior to the addition of the PRP. Immediately after the addition of the PRP, the cuvettes were placed into the aggregometer. After two minutes (to allow for the stabilization of the platelet preparation and mixing of the BAY e 9736), ADP or tumor cells were added in 20 microliter aliquots to induce platelet aggregation.
Adenosine diphosphate (ADP) was prepared as a 1 mM solution (in distilled water). A 25 microliter aliquot was added to control and BAY e 9736 treated cuvettes containing PRP. The ADP concentration used induces rapid, monophasic platelet aggregation.

COCCOC(=O)C1=C(C)NC(C)=C(C(=O)OC(C)C)C1c1cccc([N+](=O)[O-])c1 (stereo not drawn) [BAY e 9736, 1,4-dihydro-2,6-dimethyl-4-(3' nitrophenyl)-pyridine-3-(beta-methyoxyethylester)-5-(isopropyl ester)]
effect on 3H-thymidine incorporation (in words) (B16a Tumor Cells): inhibited the incorporation of ^3 H-thymidine into the tumor cell DNA
effect on 3H-thymidine incorporation (in words) (B16a Tumor Cells; listed as nimodipine): decreases the rate of incorporation of ^3 H-thymidine into tumor cell DNA
activity at 10 µg/mL (B16a Tumor Cells; Mus musculus, .01 mg/ml, 15 min preincubation, 1 hour incorporation, x ± SEM, n = 4, read-out: % of Control Tumor Cell Incorporation (3H-thymidine)): 77 ± 2.5%
activity at 20 µg/mL (B16a Tumor Cells; Mus musculus, .02 mg/ml, 15 min preincubation, 1 hour incorporation, x ± SEM, n = 4, read-out: % of Control Tumor Cell Incorporation (3H-thymidine)): 56 ± 3.5%
activity at 40 µg/mL (B16a Tumor Cells; Mus musculus, .04 mg/ml, 15 min preincubation, 1 hour incorporation, x ± SEM, n = 4, read-out: % of Control Tumor Cell Incorporation (3H-thymidine)): 38 ± 4%
% Inhibition of ADP Induced Platelet Aggregation (Platelet; 0.0015 mg/ml final, 0.1 mM ADP): No effect
% Inhibition of ADP Induced Platelet Aggregation (Platelet; 0.004 mg/ml final (second line so printed, below 0.0015), 0.1 mM ADP): No effect
% Inhibition of ADP Induced Platelet Aggregation (Platelet; 0.004 mg/ml final, 0.1 mM ADP): No effect
inhibition at 15 µg/mL (Platelet; Homo sapiens, Platelet, 0.015 mg/ml final, 0.1 mM ADP, printed "No effect to 12%"): ≤ 12%
inhibition at 40 µg/mL (Platelet; Homo sapiens, Platelet, 0.04 mg/ml final, 0.1 mM ADP, x ± SEM, n = 3): 31 ± 6.2%
inhibition at 150 µg/mL (Platelet; Homo sapiens, Platelet, 0.15 mg/ml final, 0.1 mM ADP, x ± SEM, n = 3): 58 ± 11%
inhibition at 400 µg/mL (Platelet; Homo sapiens, Platelet, 0.4 mg/ml final, 0.1 mM ADP, x ± SEM, n = 3): 69 ± 7.5%
effect on ADP induced platelet aggregation (in words) (Platelet): able to significantly inhibit this aggregation
effect on ADP induced platelet aggregation (in words) (Platelet; listed as nimodipine): greatly inhibit platelet aggregation induced by tumor cells and ADP
